# Data reported in ChEMBL document CHEMBL5375950, “Chemical genetic approaches for the discovery of bacterial cell wall inhibitors” (2023).
# Tested on: Escherichia coli
# Assay: Antibacterial activity against Escherichia coli MG1655 assessed as inhibition of bacterial growth
# Assay type: functional
smiles,measurement,value
COc1ccc(-c2c(-c3ccc(C)s3)[nH]c3[nH]c(=O)[nH]c(=O)c23)cc1,MIC,16 µg/mL
